Assay results published in patent publication US20260167656A1, “PHOSPHORAMIDATE COMPOUNDS AND USES THEREOF” (ALLORION THERAPEUTICS INC, priority 2022, published 2026).

Experiments:
[1] = system: non-small cell lung cancer cell line H460; experiment: In vitro human cancer cell line cytotoxicity (proliferation) assay in H460, CellTiter-Glo, 72 hours; type: cell-based; conditions: H460 cells, DMSO condition (no AKR1C3 inhibitor), read-out: CTG H460: Avg IC50 (nM) [Assay Condition: DMSO]
Procedure, shortened: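 H460 cells were seeded at 3×10^3 per well and grown 24 h at 37 °C, 5% CO2 before compound addition from 10 mM DMSO stocks. After 72 h further incubation, viability was measured by CellTiter-Glo, and IC50 values in nM were derived from the proliferation data.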

[2] = system: non-small cell lung cancer cell line H460; experiment: H460 proliferation assay in the presence of 3 uM ASP9521 (AKR1C3 specific inhibitor); type: cell-based, human; conditions: H460 cells, CellTiter-Glo, 72 hours, in the presence of 3 uM ASP9521 added 4 hours prior to compounds; read-out: CTG H460: Avg IC50 (nM) [Assay Condition: ASP9521]
Procedure, shortened: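 H460 cells pre-incubated 24 h, then exposed to compounds for 72 h at 37 °C, 5% CO2. Viability read by CellTiter-Glo. ASP9521 (3 uM, AKR1C3 inhibitor) added 4 h before compounds.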

O=[N+]([O-])c1ccc2c(c1Oc1cccc(-c3ccccn3)c1)CC[C@H]2OP(=O)(N1CC1)N1CC1 [Example 296]
IC50 ([1]; Homo sapiens, NCI-H460, 72 h): < 10 nM | IC50 [2]: 976 nM

O=[N+]([O-])c1ccc2c(c1Oc1cccc(-c3ccc(F)cn3)c1)CCC2OP(=O)(N1CC1)N1CC1 (stereo not drawn) [Example 322]
IC50 [1]: < 10 nM | IC50 [2]: 1610 nM

O=C1OCCN1c1ccc(Oc2cc3c(cc2[N+](=O)[O-])CCC3OP(=O)(N2CC2)N2CC2)cc1 (stereo not drawn) [Example 164]
IC50 ([1]; Homo sapiens, NCI-H460, 72 h): < 10 nM | IC50 [2]: 237 nM

O=C(c1cccc(Oc2c([N+](=O)[O-])ccc3c2CCC3OP(=O)(N2CC2)N2CC2)c1)N1CCCC1 (stereo not drawn) [Example 99]
IC50 ([1]; Homo sapiens, NCI-H460, 72 h): < 10 nM | IC50 [2]: 1010 nM

Cn1c(=O)oc2ccc(Oc3c([N+](=O)[O-])ccc4c3CCC4OP(=O)(N3CC3)N3CC3)cc21 (single isomer, unassigned) [Example 65]
IC50 [1]: < 10 nM | IC50 [2]: 279 nM

O=[N+]([O-])c1ccc2c(c1Oc1ccc(-c3cnn(C4CC4)c3)cc1)CCC2OP(=O)(N1CC1)N1CC1 (stereo not drawn) [Example 79]
IC50 [1]: 10 to 50 nM | IC50 [2]: 1610 nM

C[C@@H](OP(=O)(N1CC1)N1CC1)c1cc2cc(Oc3cccc(-c4ccccn4)c3)c([N+](=O)[O-])cc2o1 [Example 553]
IC50 [1]: 10 to 50 nM | IC50 [2]: 2950 nM

O=[N+]([O-])c1ccc2c(c1Oc1ccc(OC3CCCC3)cc1)CCC2OP(=O)(N1CC1)N1CC1 (stereo not drawn) [Example 491]
IC50 [1]: < 10 nM | IC50 [2]: 1940 nM

O=[N+]([O-])c1cc2c(cc1Oc1ccc(-c3ccccc3)nc1)[C@H](OP(=O)(N1CC1)N1CC1)CC2 [Example 528]
IC50 [1]: < 10 nM | IC50 [2]: 880 nM

Cn1c(=O)oc2cc(Oc3c([N+](=O)[O-])ccc4c3CCC4OP(=O)(N3CC3)N3CC3)ccc21 (stereo not drawn) [Example 121]
IC50 ([1]; Homo sapiens, NCI-H460, 72 h): < 10 nM | IC50 [2]: 33.8 nM

COc1ccn(Cc2cc(C(C)OP(=O)(N3CC3)N3CC3)ccc2[N+](=O)[O-])c(=O)c1 (single isomer, unassigned) [Example 2]
IC50 ([1]; Homo sapiens, NCI-H460, 72 h): ≥ 100 nM | IC50 [2]: > 10000 nM

O=[N+]([O-])c1ccc2c(c1Oc1ccc(-c3ccccc3)nc1)CCC2OP(=O)(N1CC1)N1CC1 (stereo not drawn) [Example 51]
IC50 [1]: < 10 nM | IC50 [2]: 327 nM

Cn1cccc(-c2ccc(Oc3c([N+](=O)[O-])ccc4c3CC[C@H]4OP(=O)(N3CC3)N3CC3)cc2)c1=O [Example 271]
IC50 [1]: < 10 nM | IC50 [2]: 920 nM

O=C(c1cccc(Oc2c([N+](=O)[O-])ccc3c2CCC3OP(=O)(N2CC2)N2CC2)c1)N1CCCCC1 (single isomer, unassigned) [Example 69]
IC50 [1]: < 10 nM | IC50 [2]: 573 nM

O=[N+]([O-])c1ccc2c(c1Oc1cccc(-n3cc(F)cn3)c1)CCC2OP(=O)(N1CC1)N1CC1 (stereo not drawn) [Example 82]
IC50 ([1]; Homo sapiens, NCI-H460, 72 h): < 10 nM | IC50 [2]: 181 nM

CN1CCc2ccc(Oc3cc4c(cc3[N+](=O)[O-])OCCC4OP(=O)(N3CC3)N3CC3)cc2C1=O (stereo not drawn) [Example 200]
IC50 ([1]; Homo sapiens, NCI-H460, 72 h): 10 to 50 nM | IC50 [2]: 434 nM

O=c1ccccn1-c1cccc(Oc2c([N+](=O)[O-])ccc3c2CCC3OP(=O)(N2CC2)N2CC2)c1 (stereo not drawn) [Example 80]
IC50 ([1]; Homo sapiens, NCI-H460, 72 h): < 10 nM | IC50 [2]: 909 nM

O=[N+]([O-])c1ccc2c(c1Oc1ccc(-c3ccccc3)cc1)CCC2OP(=O)(N1CC1)N1CC1 (single isomer, unassigned) [Example 19]
IC50 ([1]; Homo sapiens, NCI-H460, 72 h): < 10 nM | IC50 [2]: 593 nM

COc1cc(Oc2c([N+](=O)[O-])ccc3c2CC[C@@H]3OP(=O)(N2CC2)N2CC2)cc(-c2ncccn2)c1 [Example 357]
IC50 ([1]; Homo sapiens, NCI-H460, 72 h): < 10 nM | IC50 [2]: 467 nM

CNC(=O)c1ccc(Oc2c([N+](=O)[O-])ccc3c2CCC3OP(=O)(N2CC2)N2CC2)cc1 (stereo not drawn) [Example 36]
IC50 ([1]; Homo sapiens, NCI-H460, 72 h): 10 to 50 nM | IC50 [2]: 527 nM

CC1CN1P(=O)(OCc1ccc([N+](=O)[O-])c(Oc2cccc(C(=O)N(C)C)c2)c1)N1CC1C (stereo not drawn) [Example 206, 3-(3-(dimethylcarbamoyl)phenoxy)-4-nitrobenzyl bis(2-methylaziridin-1-yl)phosphinate]
IC50 ([1]; Homo sapiens, NCI-H460, 72 h): < 10 nM | IC50 [2]: 82.3 nM

O=[N+]([O-])c1ccc2c(c1Oc1ccc(-n3cc(F)cn3)cc1)CCC2OP(=O)(N1CC1)N1CC1 (racemic) [Example 419]
IC50 [1]: < 10 nM | IC50 [2]: 1180 nM

O=C(c1ccc(Oc2cc3cc(COP(=O)(N4CC4)N4CC4)oc3cc2[N+](=O)[O-])cc1)N1CCOCC1 [Example 231]
IC50 ([1]; Homo sapiens, NCI-H460, 72 h): < 10 nM | IC50 [2]: 278 nM

O=[N+]([O-])c1ccc2c(c1Oc1ccc(-c3ccccn3)cc1)CC[C@@H]2OP(=O)(N1CC1)N1CC1 (single isomer, unassigned) [Example 40]
IC50 ([1]; Homo sapiens, NCI-H460, 72 h): < 10 nM | IC50 [2]: 929 nM

Cc1cncc(-c2ccc(Oc3c([N+](=O)[O-])ccc4c3CCC4OP(=O)(N3CC3)N3CC3)cc2)n1 (racemic) [Example 281]
IC50 [1]: < 10 nM | IC50 [2]: 787 nM

Cc1ncc(-c2cccc(Oc3c([N+](=O)[O-])ccc4c3CC[C@@H]4OP(=O)(N3CC3)N3CC3)c2)[nH]1 [Example 344]
IC50 ([1]; Homo sapiens, NCI-H460, 72 h): < 10 nM | IC50 [2]: 1510 nM

O=[N+]([O-])c1ccc2c(c1Oc1cccc(-n3ccc(F)n3)c1)CC[C@H]2OP(=O)(N1CC1)N1CC1 [Example 445]
IC50 ([1]; Homo sapiens, NCI-H460, 72 h): < 10 nM | IC50 [2]: 357 nM

O=[N+]([O-])c1cc2c(cc1Oc1ccc(-c3ccc(F)cc3)cc1)C(OP(=O)(N1CC1)N1CC1)CC2 (stereo not drawn) [Example 144]
IC50 ([1]; Homo sapiens, NCI-H460, 72 h): < 10 nM | IC50 [2]: 347 nM

O=[N+]([O-])c1ccc2c(c1Oc1ccc(-c3ccccc3)cc1)OCCC2OP(=O)(N1CC1)N1CC1 (stereo not drawn) [Example 135]
IC50 [1]: < 10 nM | IC50 [2]: 482 nM

O=[N+]([O-])c1ccc2c(c1Oc1ccc(-c3ncc(F)cn3)cc1)CC[C@H]2OP(=O)(N1CC1)N1CC1 (single isomer, unassigned) [Example 266]
IC50 ([1]; Homo sapiens, NCI-H460, 72 h): 10 to 50 nM | IC50 [2]: 716 nM

O=C(c1ccc(Oc2cc3c(cc2[N+](=O)[O-])CCC3OP(=O)(N2CC2)N2CC2)cc1)N1CCOCC1 (stereo not drawn) [Example 160]
IC50 ([1]; Homo sapiens, NCI-H460, 72 h): < 10 nM | IC50 [2]: 270 nM

O=C(c1cc(Oc2c([N+](=O)[O-])ccc3c2CC[C@@H]3OP(=O)(N2CC2)N2CC2)ccc1F)N1CCCC1 [Example 259]
IC50 [1]: < 10 nM | IC50 [2]: 1550 nM

CC(OP(=O)(N1C[C@H]1C)N1C[C@H]1C)c1ccc([N+](=O)[O-])c(Oc2cccc(C(=O)N(C)C)c2)c1 (stereo partly drawn) [Example 212]
IC50 [1]: < 10 nM | IC50 [2]: 958 nM

O=C(c1cccc(Oc2c([N+](=O)[O-])ccc3c2CCC3OP(=O)(N2CC2)N2CC2)c1)N1CCOCC1 (single isomer, unassigned) [Example 126]
IC50 [1]: < 10 nM | IC50 [2]: 159 nM

O=[N+]([O-])c1ccc2c(c1Oc1ccc(-c3ccc(F)cn3)c(F)c1)CC[C@@H]2OP(=O)(N1CC1)N1CC1 [Example 275]
IC50 ([1]; Homo sapiens, NCI-H460, 72 h): < 10 nM | IC50 [2]: 1350 nM

O=C(c1cccc(Oc2cc3cc(COP(=O)(N4CC4)N4CC4)oc3cc2[N+](=O)[O-])c1)N1CCCC1 [Example 530, (6-nitro-5-(3-(pyrrolidine-1-carbonyl)phenoxy)benzofuran-2-yl)methyl di(aziridin-1-yl)phosphinate]
IC50 ([1]; Homo sapiens, NCI-H460, 72 h): < 10 nM | IC50 [2]: 697 nM

O=C(NC1CCC1)c1ccc(Oc2cc3c(cc2[N+](=O)[O-])CC[C@H]3OP(=O)(N2CC2)N2CC2)cc1 [Example 526]
IC50 [1]: < 10 nM | IC50 [2]: 661 nM

Cn1ccc2ccc(Oc3cc4c(cc3[N+](=O)[O-])CCC4OP(=O)(N3CC3)N3CC3)cc2c1=O (stereo not drawn) [Example 157]
IC50 [1]: 10 to 50 nM | IC50 [2]: 1240 nM

O=C(c1cccc(Oc2c([N+](=O)[O-])ccc3c2CCC3OP(=O)(N2CC2)N2CC2)c1)N1CCCCC1 (stereo not drawn) [Example 238]
IC50 [1]: < 10 nM | IC50 [2]: 1160 nM
